This passage reports IC50 results from patent US11957687B2 (REGENERON PHARMACEUTICALS, INC., priority 2019, dated 2024).

The term IC50 denotes the concentration that inhibits the measured activity by half.

Bounds are passed on as bounds.

The target in this experiment is HSD17B13 (Homo sapiens (Human), UniProt Q7Z5P4). As to the kind of experiment: HSD17B13 enzymatic inhibition assay (150 nM or 50 nM HSD17B13). In kind it is biochemical. The following applies: 50 nM HSD17B13; read-out: Inhibition of 50 nM of HSD17B13 IC50.
Sequence of HSD17B13 (Q7Z5P4 other isoform, or with tags, fused parts or gaps): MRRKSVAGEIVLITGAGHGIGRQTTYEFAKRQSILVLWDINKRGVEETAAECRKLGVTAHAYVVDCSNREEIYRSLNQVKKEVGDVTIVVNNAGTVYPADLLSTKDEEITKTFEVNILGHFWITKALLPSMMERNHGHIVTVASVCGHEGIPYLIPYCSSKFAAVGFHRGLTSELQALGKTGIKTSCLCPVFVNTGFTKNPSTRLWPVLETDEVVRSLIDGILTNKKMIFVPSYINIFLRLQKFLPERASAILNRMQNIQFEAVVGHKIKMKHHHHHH

As to `CCc1ccc2c(c1)Oc1ccccc1C2NC(=O)c1ccc(C(F)(F)F)[nH]c1=O` (stereo not drawn) [Compound 162, N-(3-ethyl-9H-xanthen-9-yl)-2-oxo-6-(trifluoromethyl)-1,2-dihydropyridine-3-carboxamide], the 50% inhibitory concentration (IC50) is 80 nM.
With `CCc1cccc2c1C(NC(=O)c1ccc(C(F)(F)F)[nH]c1=O)c1ccccc1O2` (stereo not drawn) [Compound 163, N-(1-ethyl-9H-xanthen-9-yl)-2-oxo-6-(trifluoromethyl)-1,2-dihydropyridine-3-carboxamide] the figure was 840 nM; with `Cc1ccc2c(c1)Oc1cccc(C)c1C2NC(=O)c1cc(C)c(C(F)(F)F)[nH]c1=O` (stereo not drawn) [Compound 164, N-(1,6-dimethyl-9H-xanthen-9-yl)-5-methyl-2-oxo-6-(trifluoromethyl)-1,2-dihydropyridine-3-carboxamide], 900 nM; with `Cc1cc(C(=O)NC2c3ccc(Cl)cc3Oc3cc(Cl)ccc32)c(=O)[nH]c1C(F)(F)F` [Compound 165, N-(3,6-dichloro-9H-xanthen-9-yl)-5-methyl-2-oxo-6-(trifluoromethyl)-1,2-dihydropyridine-3-carboxamide], 110 nM.
Under `Cc1ccc2c(c1)Oc1cc(C)ccc1C2NC(=O)c1cc(C)c(C(F)(F)F)[nH]c1=O` [Compound 166, N-(3,6-dimethyl-9H-xanthen-9-yl)-5-methyl-2-oxo-6-(trifluoromethyl)-1,2-dihydropyridine-3-carboxamide] stands 60 nM; under `CCc1cc(C(=O)NC2c3ccc(C)cc3Oc3cccc(C)c32)c(=O)[nH]c1C(F)(F)F` (stereo not drawn) [Compound 167, N-(1,6-dimethyl-9H-xanthen-9-yl)-5-ethyl-2-oxo-6-(trifluoromethyl)-1,2-dihydropyridine-3-carboxamide], 820 nM.
With `C=Cc1cc(C(=O)NC2c3ccc(C)cc3Oc3cccc(C)c32)c(=O)[nH]c1C(F)(F)F` (stereo not drawn) [Compound 168, N-(1,6-dimethyl-9H-xanthen-9-yl)-2-oxo-6-(trifluoromethyl)-5-vinyl-1,2-dihydropyridine-3-carboxamide] the figure was 330 nM; with `CCc1cc(C(=O)NC2c3ccc(Cl)cc3Oc3cccc(Cl)c32)c(=O)[nH]c1C(F)(F)F` (stereo not drawn) [Compound 169, N-(1,6-dichloro-9H-xanthen-9-yl)-5-ethyl-2-oxo-6-(trifluoromethyl)-1,2-dihydropyridine-3-carboxamide], 780 nM; with `C=Cc1cc(C(=O)NC2c3ccc(Cl)cc3Oc3cccc(Cl)c32)c(=O)[nH]c1C(F)(F)F` (stereo not drawn) [Compound 170, N-(1,6-dichloro-9H-xanthen-9-yl)-2-oxo-6-(trifluoromethyl)-5-vinyl-1,2-dihydropyridine-3-carboxamide], 350 nM.
For `C=Cc1cc(C(=O)NC2c3ccc(Cl)cc3Oc3cc(Cl)ccc32)c(=O)[nH]c1C(F)(F)F` [Compound 171, N-(3,6-dichloro-9H-xanthen-9-yl)-2-oxo-6-(trifluoromethyl)-5-vinyl-1,2-dihydropyridine-3-carboxamide], the IC50 worked out at 100 nM.
In the case of `CCc1cc(C(=O)NC2c3ccc(Cl)cc3Oc3cc(Cl)ccc32)c(=O)[nH]c1C(F)(F)F` [Compound 172, N-(3,6-dichloro-9H-xanthen-9-yl)-5-ethyl-2-oxo-6-(trifluoromethyl)-1,2-dihydropyridine-3-carboxamide], the IC50 amounted to 140 nM.
In the case of `C=CCc1cc(C(=O)NC2c3ccc(Cl)cc3Oc3cc(Cl)ccc32)c(=O)[nH]c1C(F)(F)F` [Compound 173, 5-allyl-N-(3,6-dichloro-9H-xanthen-9-yl)-2-oxo-6-(trifluoromethyl)-1,2-dihydropyridine-3-carboxamide], the IC50 is 30 nM.
With `C=CCc1cc(C(=O)NC2c3ccc(Cl)cc3Oc3cccc(Cl)c32)c(=O)[nH]c1C(F)(F)F` (stereo not drawn) [Compound 174, 5-allyl-N-(1,6-dichloro-9H-xanthen-9-yl)-2-oxo-6-(trifluoromethyl)-1,2-dihydropyridine-3-carboxamide] the figure was 240 nM.
Under `Cc1ccc2c(c1)Oc1cccc(C)c1C2NC(=O)c1cc(-c2ccccc2)c(C(F)(F)F)[nH]c1=O` (stereo not drawn) [Compound 175, N-(1,6-dimethyl-9H-xanthen-9-yl)-2-oxo-5-phenyl-6-(trifluoromethyl)-1,2-dihydropyridine-3-carboxamide] stands 280 nM; under `CCCc1cc(C(=O)NC2c3ccc(Cl)cc3Oc3cccc(Cl)c32)c(=O)[nH]c1C(F)(F)F` (stereo not drawn) [Compound 179, N-(1,6-dichloro-9H-xanthen-9-yl)-2-oxo-5-propyl-6-(trifluoromethyl)-1,2-dihydropyridine-3-carboxamide], 400 nM; under `C=CCc1cc(C(=O)NC2c3ccc(C)cc3Oc3cccc(C)c32)c(=O)[nH]c1C(F)(F)F` (stereo not drawn) [Compound 180, 5-allyl-N-(1,6-dimethyl-9H-xanthen-9-yl)-2-oxo-6-(trifluoromethyl)-1,2-dihydropyridine-3-carboxamide], 160 nM.
As to `CCCc1cc(C(=O)NC2c3ccc(C)cc3Oc3cccc(C)c32)c(=O)[nH]c1C(F)(F)F` (stereo not drawn) [Compound 181, N-(1,6-dimethyl-9H-xanthen-9-yl)-2-oxo-5-propyl-6-(trifluoromethyl)-1,2-dihydropyridine-3-carboxamide], the IC50 turned out to be 390 nM.
As to `Cc1ccc2c(c1)Oc1cccc(C)c1C2NC(=O)c1cc(CCc2ccccc2)c(C(F)(F)F)[nH]c1=O` (stereo not drawn) [Compound 184, N-(1,6-dimethyl-9H-xanthen-9-yl)-2-oxo-5-phenethyl-6-(trifluoromethyl)-1,2-dihydropyridine-3-carboxamide], the IC50 turned out to be 150 nM.
Under `Cc1ccc2c(c1)Oc1cccc(C)c1C2NC(=O)c1cc(CO)c(C(F)(F)F)[nH]c1=O` (stereo not drawn) [Compound 185, N-(1,6-dimethyl-9H-xanthen-9-yl)-5-(hydroxymethyl)-2-oxo-6-(trifluoromethyl)-1,2-dihydropyridine-3-carboxamide] stands 730 nM.
Under `Cc1ccc2c(c1)Oc1cccc(C)c1C2NC(=O)c1cc(C2CCCCC2)c(C(F)(F)F)[nH]c1=O` (stereo not drawn) [Compound 186, 5-cyclohexyl-N-(1,6-dimethyl-9H-xanthen-9-yl)-2-oxo-6-(trifluoromethyl)-1,2-dihydropyridine-3-carboxamide] stands 1830 nM; under `Cc1ccc2c(c1)Oc1cccc(C)c1C2NC(=O)c1cc(C2=CCCCC2)c(C(F)(F)F)[nH]c1=O` (stereo not drawn) [Compound 187, 5-(cyclohex-1-en-1-yl)-N-(1,6-dimethyl-9H-xanthen-9-yl)-2-oxo-6-(trifluoromethyl)-1,2-dihydropyridine-3-carboxamide], 770 nM; under `Cc1ccc2c(c1)Oc1cccc(C)c1C2NC(=O)c1cc(C2=CCOCC2)c(C(F)(F)F)[nH]c1=O` (stereo not drawn) [Compound 188, 5-(3,6-dihydro-2H-pyran-4-yl)-N-(1,6-dimethyl-9H-xanthen-9-yl)-2-oxo-6-(trifluoromethyl)-1,2-dihydropyridine-3-carboxamide], 280 nM.
Regarding `Cc1ccc2c(c1)Oc1cc(C)ccc1C2NC(=O)c1cc(Br)c(C(F)(F)F)[nH]c1=O` [Compound 189, 5-bromo-N-(3,6-dimethyl-9H-xanthen-9-yl)-2-oxo-6-(trifluoromethyl)-1,2-dihydropyridine-3-carboxamide], the 50% inhibitory concentration (IC50) came out at 70 nM.
Turning to `O=C(NC1c2ccc(Cl)cc2Oc2cccc(Cl)c21)c1cnc(C(F)(F)F)[nH]c1=O` (stereo not drawn) [Compound 191, N-(1,6-dichloro-9H-xanthen-9-yl)-6-oxo-2-(trifluoromethyl)-1,6-dihydropyrimidine-5-carboxamide], the IC50 is 870 nM.
Under `O=C(NC1c2ccc(Cl)cc2Oc2cc(Cl)ccc21)c1cnc(C(F)(F)F)[nH]c1=O` [Compound 192, N-(3,6-dichloro-9H-xanthen-9-yl)-6-oxo-2-(trifluoromethyl)-1,6-dihydropyrimidine-5-carboxamide] stands 230 nM; under `Cc1ccc2c(c1)Oc1cccc(C)c1C2NC(=O)c1cnc(C(F)(F)F)[nH]c1=O` (stereo not drawn) [Compound 193, N-(1,6-dimethyl-9H-xanthen-9-yl)-6-oxo-2-(trifluoromethyl)-1,6-dihydropyrimidine-5-carboxamide], 1020 nM; under `Cc1cc(C(F)(F)F)[nH]c(=O)c1C(=O)NC1c2ccccc2Oc2ccccc21` [Compound 195, 4-methyl-2-oxo-6-(trifluoromethyl)-N-(9H-xanthen-9-yl)-1,2-dihydropyridine-3-carboxamide], 3310 nM.
With `Cc1cc(C(F)(F)F)[nH]c(=O)c1C(=O)NC1c2ccccc2Oc2cc(Cl)ccc21` (stereo not drawn) [Compound 196, N-(3-chloro-9H-xanthen-9-yl)-4-methyl-2-oxo-6-(trifluoromethyl)-1,2-dihydropyridine-3-carboxamide] the figure was 630 nM; with `COc1ccc2c(c1)Oc1ccccc1C2NC(=O)c1ccc(C(F)(F)F)[nH]c1=O` (stereo not drawn) [Compound 197, N-(3-methoxy-9H-xanthen-9-yl)-2-oxo-6-(trifluoromethyl)-1,2-dihydropyridine-3-carboxamide], 1130 nM; with `Cc1ccc2c(c1)Oc1cccc(C)c1C2NC(=O)c1c(C)cc(C(F)(F)F)[nH]c1=O` (stereo not drawn) [Compound 199, N-(1,6-dimethyl-9H-xanthen-9-yl)-4-methyl-2-oxo-6-(trifluoromethyl)-1,2-dihydropyridine-3-carboxamide], 5150 nM.
With `Cc1cc(C(F)(F)F)[nH]c(=O)c1C(=O)NC1c2ccc(Cl)cc2Oc2cccc(Cl)c21` (stereo not drawn) [Compound 200, N-(1,6-dichloro-9H-xanthen-9-yl)-4-methyl-2-oxo-6-(trifluoromethyl)-1,2-dihydropyridine-3-carboxamide] the figure was > 10000 nM; with `CCc1cc(C(F)(F)F)[nH]c(=O)c1C(=O)NC1c2ccc(C)cc2Oc2cc(C)ccc21` [Compound 201, N-(3,6-dimethyl-9H-xanthen-9-yl)-4-ethyl-2-oxo-6-(trifluoromethyl)-1,2-dihydropyridine-3-carboxamide], 430 nM; with `Cc1ccc2c(c1)Oc1cc(C)ccc1C2NC(=O)c1c(C)cc(C(F)(F)F)[nH]c1=O` [Compound 202, N-(3,6-dimethyl-9H-xanthen-9-yl)-4-methyl-2-oxo-6-(trifluoromethyl)-1,2-dihydropyridine-3-carboxamide], 350 nM.
